Data as given in PMC10873626, “Acceleration of infectious disease drug discovery and development using a humanized model of drug metabolism” (Proceedings of the National Academy of Sciences of the …, 2024).
Read-outs that look alike come from different tables or passages of the source.

Legend:
[1] = microsomes
[2] = mouse, microsomes
[3] = human, 30 min, 5 µM, pH 7.4
[4] = system: CYP; conditions: cited from earlier work
[5] = system: CYP3A4; test: Hepatic CYP3A4 induction in 8HUM (Western blot); type: in vivo, mouse; conditions: efavirenz 20 and 40 mg/kg QD
Method: Microsomal samples were adjusted to 1 mg/mL in LDS sample buffer (Life Technologies) for loading of 10 µg total protein into each well and electrophoresis through 10% acrylamide gels for 1 h at 150 V, followed by transfer onto nitrocellulose membranes. Primary antibodies used for immunoblotting were anti-CYP3A4 (458234, BD Biosciences) and anti-GRP78 loading control (ab21685, Abcam). Pooled HLM material was the same as used in microsomal incubations. Loading control is not provided for Fig. 1B, as the comparison is between human and murine samples.
Mouse hepatic microsomes were prepared by homogenization of freshly-isolated liver in ice-cold SET buffer (0.25 M sucrose, 5 mM EDTA, and 20 mM Tris-HCL, pH 7.4) to make a 10% (w/v) homogenate solution (9 ml SET buffer/1 g liver) using a Polytron PT-MR-2100 homogenizer. Liver homogenates were centrifuged at 2000 rpm (Sorvall RTH-250 rotor) for 10 minutes at 4 °C and the supernatant then centrifuged at 12000 rpm (Sorvall SS-34 rotor) for 20 minutes at 4 °C. The resulting supernatant was centrifuged at 29130 rpm (Sorvall TFT-45.6 rotor) for 90 minutes at 4 °C and the microsomal pellets were resuspended in ice-cold SET buffer for storage at –70 °C.
Primary hepatocytes were freshly prepared from 8HUM using a modified version of Charni-Natan and Goldstein’s STAR Protocol(1). Following termination by cervical dislocation and femoral vessel cut […]

[6] = mouse, in vivo
[7] = system: M. tuberculosis; conditions: cited from earlier work
[8] = in vivo; conditions: female, C57BL/6J, mouse
[9] = system: M. tuberculosis H37Rv; test: Acute M. tuberculosis infection efficacy model in WT mice (lung CFU); type: in vivo, Mycobacterium tuberculosis; conditions: efavirenz co-administration
[10] = in vivo; conditions: female, 8HUM, mouse
[11] = human, in vivo; cited from earlier work
[12] = system: M. tuberculosis H37Rv; test: Acute M. tuberculosis infection efficacy model in 8HUM (lung CFU); type: in vivo, Mycobacterium tuberculosis; conditions: 8HUM, efavirenz co-administration
[13] = mouse, hepatocytes
[14] = in vivo; conditions: female, mouse, po
[15] = mouse, hepatocytes; remark: listed apart in the source
[16] = hepatocytes
[17] = in vivo; conditions: female, 8HUM, mouse, po
[18] = mouse, microsomes; remark: listed apart in the source

Cc1c(O)cccc1C(=O)N[C@@H](CSc1ccccc1)[C@H](O)CN1C[C@H]2CCCC[C@H]2C[C@H]1C(=O)NC(C)(C)C [Nelfinavir]
CLint, Human [1]: 50 mL/min/g liver | CLint, WT [2]: 50 mL/min/g liver | metabolites detected [3]: 18 | CYP interaction: Inhibitor [4]: 3A4

O=C1Nc2ccc(Cl)cc2[C@@](C#CC2CC2)(C(F)(F)F)O1 [Efavirenz]
CLint, Human [1]: 0.5 mL/min/g liver | induction of hepatic CYP3A4 [5]: approximately threefold | CYP interaction: Inducer [4]: 3A4 | CYP interaction: Substrate [4]: 2B6

CNCC[C@@](O)(c1cccc2ccccc12)[C@H](c1ccccc1)c1cc2cc(Br)ccc2nc1OC [NDM-bedaquiline, N-desmethyl bedaquiline]
impact of efavirenz on PK [6]: little impact | potency of metabolite relative to parent compound [7]: approximately fivefold less potent

COc1nc2ccc(Br)cc2cc1[C@@H](c1ccccc1)[C@@](O)(CCN(C)C)c1cccc2ccccc12 [Bedaquiline]
AUC(0-t) [8]: 2930 ng·h/mL | decrease in efficacy of bedaquiline with efavirenz [9]: 1.3 log CFU | AUC(0-t) [10]: 19100 ng·h/mL | terminal half-life [11]: 5.5 mo | impact of efavirenz on efficacy of bedaquiline [12]: no impact | CYP interaction: Substrate [4]: 3A4

CO[C@H]1/C=C/O[C@@]2(C)Oc3c(C)c(O)c4c(c3C2=O)C2=NC3(CCN(CC(C)C)CC3)NC2=C(NC(=O)/C(C)=C\C=C\[C@H](C)[C@H](O)[C@@H](C)[C@@H](O)[C@@H](C)[C@H](OC(C)=O)[C@@H]1C)C4=O [Rifabutin]
CLint, Human [1]: 1.1 mL/min/g liver | CLint, WT [13]: 0.5 mL/min/g liver | CL/F [14]: 24.8 mL/min/kg | CLint, 8HUM [15]: 0.7 mL/min/g liver | CLint, Human [16]: 1 mL/min/g liver | CL/F [17]: 4.03 mL/min/kg | CYP interaction: Substrate [4]: 3A4 | CLint, CypC4KO [18]: 0.5 mL/min/g liver
